Laboratory results published in patent US12077503B2, “Substituted cyclic amides and their use as herbicides” (FMC CORPORATION, priority 2015, dated 2024).
Like-named read-outs stand apart in the source and are kept apart here.

Assays:
Assay type in all cases: in vivo
[1] = tested on: Kochia (Kochia scoparia); assay: Test A preemergence; conditions: Bassia scoparia, pre-emergence, 240 h; for pest or weed control at 125 g/ha: 125 g ai/ha; for pest or weed control at 500 g/ha: 500 g ai/ha, visual injury rating about 10 d after treatment, 0 to 100 scale (0 no effect, 100 complete control)
Outline: (§1)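 Preemergence soil spray on seeded pots or post-emergence spray on 1–2 leaf plants, in loam–sand blend. Greenhouse ~10 d. Visual rating 0–100 against untreated plants.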

[2] = tested on: barnyardgrass (Echinochloa crus-galli); assay: Test A preemergence; conditions: Echinochloa crus-galli, pre-emergence, 240 h; for pest or weed control at 125 g/ha: 125 g ai/ha; for pest or weed control at 500 g/ha: 500 g ai/ha, visual injury rating about 10 d after treatment, 0 to 100 scale (0 no effect, 100 complete control)
Outline: as §1

[3] = tested on: giant foxtail (Setaria faberii); assay: Test A preemergence; conditions: Setaria faberi, pre-emergence, 240 h; for pest or weed control at 125 g/ha: 125 g ai/ha; for pest or weed control at 500 g/ha: 500 g ai/ha, visual injury rating about 10 d after treatment, 0 to 100 scale (0 no effect, 100 complete control)
Outline: as §1

[4] = tested on: pigweed (Amaranthus retroflexus); assay: Test A preemergence; conditions: Amaranthus retroflexus, pre-emergence, 240 h; for pest or weed control at 125 g/ha: 125 g ai/ha; for pest or weed control at 500 g/ha: 500 g ai/ha, visual injury rating about 10 d after treatment, 0 to 100 scale (0 no effect, 100 complete control)
[5] = tested on: ragweed (common ragweed, Ambrosia elatior); assay: Test A preemergence; conditions: Ambrosia artemisiifolia, pre-emergence, 240 h; for pest or weed control at 125 g/ha: 125 g ai/ha; for pest or weed control at 500 g/ha: 500 g ai/ha, visual injury rating about 10 d after treatment, 0 to 100 scale (0 no effect, 100 complete control)
Outline: as §1

[6] = tested on: ryegrass, Italian (Italian ryegrass, Lolium multiflorum); assay: Test A preemergence; conditions: Lolium multiflorum, pre-emergence, 240 h; for pest or weed control at 125 g/ha: 125 g ai/ha; for pest or weed control at 500 g/ha: 500 g ai/ha, visual injury rating about 10 d after treatment, 0 to 100 scale (0 no effect, 100 complete control)
Outline: as §1

[7] = tested on: Galium (catchweed bedstraw, Galium aparine); assay: Test A postemergence; conditions: Galium, post-emergence, 240 h, postemergence; for pest or weed control at 125 g/ha: 125 g ai/ha, visual injury on 0 to 100 scale (0 no effect, 100 complete control); for pest or weed control at 500 g/ha: 500 g ai/ha
Outline: as §1

[8] = tested on: Kochia (Kochia scoparia); assay: Test A postemergence; conditions: Bassia scoparia, post-emergence, 240 h, postemergence; for pest or weed control at 125 g/ha: 125 g ai/ha, visual injury on 0 to 100 scale (0 no effect, 100 complete control); for pest or weed control at 500 g/ha: 500 g ai/ha
Outline: as §1

[9] = tested on: barnyardgrass (Echinochloa crus-galli); assay: Test A postemergence; conditions: Echinochloa crus-galli, post-emergence, 240 h, postemergence; for pest or weed control at 125 g/ha: 125 g ai/ha, visual injury on 0 to 100 scale (0 no effect, 100 complete control); for pest or weed control at 500 g/ha: 500 g ai/ha
Outline: as §1

[10] = tested on: blackgrass (Alopecurus myosuroides); assay: Test A postemergence; conditions: Alopecurus myosuroides, post-emergence, 240 h, postemergence; for pest or weed control at 125 g/ha: 125 g ai/ha, visual injury on 0 to 100 scale (0 no effect, 100 complete control); for pest or weed control at 500 g/ha: 500 g ai/ha
Outline: as §1

[11] = tested on: corn (Zea mays); assay: Test A postemergence; conditions: Zea mays, post-emergence, 240 h, postemergence; for plant injury at 125 g/ha: 125 g ai/ha, visual injury on 0 to 100 scale (0 no effect, 100 complete control)
Outline: as §1

[12] = tested on: giant foxtail (Setaria faberii); assay: Test A postemergence; conditions: Setaria faberi, post-emergence, 240 h, postemergence; for pest or weed control at 125 g/ha: 125 g ai/ha, visual injury on 0 to 100 scale (0 no effect, 100 complete control); for pest or weed control at 500 g/ha: 500 g ai/ha
Outline: as §1

[13] = tested on: pigweed (Amaranthus retroflexus); assay: Test A postemergence; conditions: Amaranthus retroflexus, post-emergence, 240 h, postemergence, read-out: Pigweed plant response rating; for pest or weed control at 125 g/ha: 125 g ai/ha, visual injury on 0 to 100 scale (0 no effect, 100 complete control), approx. 10 d
Outline: as §1

[14] = tested on: ragweed (common ragweed, Ambrosia elatior); assay: Test A postemergence; conditions: Ambrosia artemisiifolia, post-emergence, 240 h, postemergence, read-out: Ragweed plant response rating; for pest or weed control at 125 g/ha: 125 g ai/ha, visual injury on 0 to 100 scale (0 no effect, 100 complete control), approx. 10 d
Outline: as §1

[15] = tested on: ryegrass, Italian (Italian ryegrass, Lolium multiflorum); assay: Test A postemergence; conditions: Lolium multiflorum, post-emergence, 240 h, postemergence, read-out: Ryegrass, Italian plant response rating; for pest or weed control at 125 g/ha: 125 g ai/ha, visual injury on 0 to 100 scale (0 no effect, 100 complete control), approx. 10 d
Outline: as §1

[16] = tested on: wheat (Triticum aestivum); assay: Test A postemergence; conditions: Triticum aestivum, post-emergence, 240 h, postemergence, read-out: Wheat plant response rating; for plant injury at 125 g/ha: 125 g ai/ha, visual injury on 0 to 100 scale (0 no effect, 100 complete control), approx. 10 d
Outline: as §1

[17] = preemergence, read-out: Kochia plant response rating
[18] = preemergence, read-out: Barnyardgrass plant response rating
[19] = preemergence, read-out: Foxtail, Giant plant response rating
[20] = preemergence, read-out: Pigweed plant response rating
[21] = preemergence, read-out: Ragweed plant response rating
[22] = preemergence, read-out: Ryegrass, Italian plant response rating
[23] = approx. 10 d, read-out: Galium plant response rating
[24] = approx. 10 d, read-out: Kochia plant response rating
[25] = approx. 10 d, read-out: Barnyardgrass plant response rating
[26] = approx. 10 d, read-out: Blackgrass plant response rating
[27] = approx. 10 d, read-out: Corn plant response rating
[28] = approx. 10 d, read-out: Foxtail, Giant plant response rating
[29] = 500 g ai/ha, 0 to 100 scale, 0 is no effect, 100 is complete control

Row | SMILES | pest or weed control at 500 g/ha [1, 17] [%] | pest or weed control at 500 g/ha [2, 18] [%] | pest or weed control at 500 g/ha [3, 19] [%] | pest or weed control at 500 g/ha [4, 20] [%] | pest or weed control at 500 g/ha [5, 21] [%] | pest or weed control at 500 g/ha [6, 22] [%] | pest or weed control at 125 g/ha [7, 23] [%] | pest or weed control at 125 g/ha [8, 24] [%] | pest or weed control at 125 g/ha [9, 25] [%] | pest or weed control at 125 g/ha [10, 26] [%] | plant injury at 125 g/ha [11, 27] [%] | pest or weed control at 125 g/ha [12, 28] [%] | pest or weed control at 125 g/ha [13] [%] | pest or weed control at 125 g/ha [14] [%] | pest or weed control at 125 g/ha [15] [%] | plant injury at 125 g/ha [16] [%] | also measured
1 | O=C(Nc1ccccc1F)[C@H]1C(=S)NC[C@@H]1c1ccc(C(F)(F)F)cc1 (racemic) [Compound 1047] | 80 | 80 | 80 | 20 | 60 | 0 | 0 | 0 | 40 | 0 | 0 | 50 | 0 | 0 | 0 | 0 | pest or weed control at 125 g/ha ([1]; Preemergence, visual injury rating after approximately 10 d, read-out: Kochia plant response rating (0 to 100 scale, 0 is no effect, 100 is complete control)): 60%; pest or weed control at 125 g/ha ([2]; Preemergence, visual injury rating after approximately 10 d, read-out: Barnyardgrass plant response rating (0 to 100 scale, 0 is no effect, 100 is complete control)): 30%; pest or weed control at 125 g/ha ([3]; Preemergence, visual injury rating after approximately 10 d, read-out: Foxtail, Giant plant response rating (0 to 100 scale, 0 is no effect, 100 is complete control)): 60%; pest or weed control at 125 g/ha ([4]; Preemergence, visual injury rating after approximately 10 d, read-out: Pigweed plant response rating (0 to 100 scale, 0 is no effect, 100 is complete control)): 0%; pest or weed control at 125 g/ha ([5]; Preemergence, visual injury rating after approximately 10 d, read-out: Ragweed plant response rating (0 to 100 scale, 0 is no effect, 100 is complete control)): 40%; pest or weed control at 125 g/ha ([6]; Preemergence, visual injury rating after approximately 10 d, read-out: Ryegrass, Italian plant response rating (0 to 100 scale, 0 is no effect, 100 is complete control)): 0%; pest or weed control at 500 g/ha ([7]; visual injury, 0 to 100 scale (0 no effect, 100 complete control), approx. 10 d, read-out: Plant response rating, Galium): 50%; pest or weed control at 500 g/ha ([8]; visual injury, 0 to 100 scale (0 no effect, 100 complete control), approx. 10 d, read-out: Plant response rating, Kochia): 20%; pest or weed control at 500 g/ha ([9]; visual injury, 0 to 100 scale (0 no effect, 100 complete control), approx. 10 d, read-out: Plant response rating, Barnyardgrass): 80%; pest or weed control at 500 g/ha ([10]; visual injury, 0 to 100 scale (0 no effect, 100 complete control), approx. 10 d, read-out: Plant response rating, Blackgrass): 0%; Corn plant response rating (crop injury, 0 = no effect, 100 = complete kill) at 500 g/ha ([11]; 500 g ai/ha, visual injury, 0 to 100 scale (0 no effect, 100 complete control), approx. 10 d): 0%; pest or weed control at 500 g/ha ([12]; visual injury, 0 to 100 scale (0 no effect, 100 complete control), approx. 10 d, read-out: Plant response rating, Foxtail, Giant): 80%
2 | C/C=C/N1C[C@@H](c2cccc(C(F)(F)F)c2)[C@H](C(=O)Nc2ccccc2F)C1=O (racemic) [Compound 1094] | 0 | 80 | 100 | 0 | 0 | 0 | 20 | 0 | 40 | 0 | 0 | 30 | 0 | 0 | 0 | 20 | pest or weed control at 125 g/ha ([1]; preemergence, 0 to 100 scale where 0 is no effect and 100 is complete control, approx. 10 d, read-out: Kochia plant response rating): 0%; pest or weed control at 125 g/ha ([2]; preemergence, 0 to 100 scale where 0 is no effect and 100 is complete control, approx. 10 d, read-out: Barnyardgrass plant response rating): 0%; pest or weed control at 125 g/ha ([3]; preemergence, 0 to 100 scale where 0 is no effect and 100 is complete control, approx. 10 d, read-out: Foxtail, Giant plant response rating): 90%; pest or weed control at 125 g/ha ([4]; preemergence, 0 to 100 scale where 0 is no effect and 100 is complete control, approx. 10 d, read-out: Pigweed plant response rating): 0%; pest or weed control at 125 g/ha ([5]; preemergence, 0 to 100 scale where 0 is no effect and 100 is complete control, approx. 10 d, read-out: Ragweed plant response rating): 0%; pest or weed control at 125 g/ha ([6]; preemergence, 0 to 100 scale where 0 is no effect and 100 is complete control, approx. 10 d, read-out: Ryegrass, Italian plant response rating): 0%; pest or weed control at 500 g/ha ([7]; 0 to 100 scale, 0 is no effect, 100 is complete control, read-out: Galium plant response rating): 20%; pest or weed control at 500 g/ha ([8]; 0 to 100 scale, 0 is no effect, 100 is complete control, read-out: Kochia plant response rating): 0%; pest or weed control at 500 g/ha ([9]; 0 to 100 scale, 0 is no effect, 100 is complete control, read-out: Barnyardgrass plant response rating): 80%; pest or weed control at 500 g/ha ([10]; 0 to 100 scale, 0 is no effect, 100 is complete control, read-out: Blackgrass plant response rating): 30%; plant injury at 500 g/ha ([11]; 500 g ai/ha, 0 to 100 scale, 0 is no effect, 100 is complete control, read-out: Corn plant response rating): 0%; pest or weed control at 500 g/ha ([12]; 0 to 100 scale, 0 is no effect, 100 is complete control, read-out: Foxtail, Giant plant response rating): 80%; pest or weed control at 500 g/ha [13, 29]: 20%; pest or weed control at 500 g/ha [14, 29]: 0%; pest or weed control at 500 g/ha [15, 29]: 20%; plant injury at 500 g/ha [16, 29]: 30%
